Data reported in patent US20230330151A1, “COMPOSITION FOR PROMOTING DIFFERENTIATION OF NEURAL STEM CELLS INTO DOPAMINERGIC NEURONS” (CHA UNIVERSITY INDUSTRY-ACADEMIC COOPERATION FOUNDATION, priority 2020, published 2023).

Key:
FMD-NPCs = assay: Differentiation rate by subculture number, TH expression measured by fluorescence intensity; format: cell-based, human; conditions: FIG. 11; as the cells were subcultured
Description: For each group, neural stem cells (A) subcultured less than 10 times, (B) subcultured 10 or more times and 20 or less times, (C) subcultured 20 or more times were used to compare average values, to compare and analyze differentiation rates according to a subcultured number.

[1] = system: FMD-NSPCs (fetal midbrain derived neural stem/progenitor cells); assay: Differentiation of neural stem cells into dopaminergic neurons, immunochemical staining for TH and Tuj1; format: cell-based, human; conditions: FIG. 3; FA: 0.1 mM; over time of differentiation

CCCCc1ccc(C(=O)O)nc1 [FA alone, 5-butylpicolinic acid]
rate of differentiation into TH (FMD-NPCs): gradually decreased
Tuj1 expression [1]: increased over time
expression of TH [1]: decreased over time
